The experiment concerns the target Beta-secretase (BACE) (Homo sapiens, UniProt Q9Y5Z0+P56817). The experiment can be described thus: Inhibitory activity against aspartyl protease. It is filed as protein assay.

As usually defined, the IC50 is the concentration that gives 50% inhibition. Lower therefore signals greater potency.

For the compound `CC[C@H](C)[C@H](NC(=O)[C@H](Cc1ccccc1)NC(C)=O)C(=O)NC(CC(C)C)C(O)CC(=O)NC(CC(C)C)C(N)=O` (stereo in doubt), the IC50 amounted to 1.4 µM.

The values above are taken from ChEMBL document CHEMBL1127641, “Applications of combinatorial technologies to drug discovery. 1. Background and peptide combinatorial libraries” (J Med Chem, 1994).
